Where “and” joins values, the source holds several entries; their conditions need not be identical. Identical values can stand only once. Inconclusive results and toxic doses are left out.

This test concerns L1210 leukemia ip in BDF1 mice, survival T/C. The test is described as follows: NCI In Vivo Anticancer Drug Screen. Data for tumor model L1210 Leukemia (intraperitoneal) in B6D2F1 (BDF1) mice. The conditions noted are these: endpoint: mean survival time, higher = longer survival. In outline: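 Value reflects the ratio of survival in compound-treated mice to survival in vehicle-treated controls, with both groups carrying the same transplanted tumor.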

Where [1] appears, read: dose: 100.0 mg/kg/injection, schedule: Q04DX002 (ip), vehicle: Klucel (hydroxypropylcellulose) (HPC).
Setting [2] is: dose: 100.0 mg/kg/injection, schedule: Q01DX001 (ip), vehicle: saline.
Where [3] appears, read: dose: 200.0 mg/kg/injection, schedule: Q01DX001 (ip), vehicle: saline.
The mark [4] stands for this setting: dose: 50.0 mg/kg/injection, schedule: Q01DX009 (ip), vehicle: saline with Tween-80.
[5] abbreviates: dose: 100.0 mg/kg/injection, schedule: Q04DX003 (ip), vehicle: saline.
Setting [6] is: dose: 200.0 mg/kg/injection, schedule: Q04DX003 (ip), vehicle: saline.
Setting [7] is: dose: 100.0 mg/kg/injection, schedule: Q01DX009 (ip), vehicle: Klucel (hydroxypropylcellulose) (HPC).
[8] abbreviates: dose: 200.0 mg/kg/injection, schedule: Q01DX009 (ip), vehicle: Klucel (hydroxypropylcellulose) (HPC).
Where [9] appears, read: dose: 400.0 mg/kg/injection, schedule: Q01DX009 (ip), vehicle: Klucel (hydroxypropylcellulose) (HPC).
Where [10] appears, read: dose: 100.0 mg/kg/injection, schedule: Q01DX009 (ip), vehicle: saline.
The mark [11] stands for this setting: dose: 200.0 mg/kg/injection, schedule: Q01DX009 (ip), vehicle: saline.
Setting [12] is: dose: 50.0 mg/kg/injection, schedule: Q01DX001 (ip), vehicle: saline.
The mark [13] stands for this setting: dose: 50.0 mg/kg/injection, schedule: Q04DX003 (ip), vehicle: saline.
The mark [14] stands for this setting: dose: 400.0 mg/kg/injection, schedule: Q01DX001 (ip), vehicle: saline.
Setting [15] is: dose: 100.0 mg/kg/injection, schedule: Q04DX003 (ip), vehicle: Klucel (hydroxypropylcellulose) (HPC).
The mark [16] stands for this setting: dose: 200.0 mg/kg/injection, schedule: Q04DX003 (ip), vehicle: Klucel (hydroxypropylcellulose) (HPC).
[17] abbreviates: dose: 400.0 mg/kg/injection, schedule: Q04DX003 (ip), vehicle: Klucel (hydroxypropylcellulose) (HPC).

For `Oc1ccc(Cl)c2cccnc12`, the T/C is, setting by setting: (dose: 4.0 mg/kg/injection, schedule: Q01DX015 (ip), vehicle: carboxymethylcellulose (CMC)) 103 % of control; (dose: 8.0 mg/kg/injection, schedule: Q01DX015 (ip), vehicle: carboxymethylcellulose (CMC)) 106 % of control; (dose: 16.0 mg/kg/injection, schedule: Q01DX015 (ip), vehicle: carboxymethylcellulose (CMC)) 103 % of control; (dose: 32.0 mg/kg/injection, schedule: Q01DX015 (ip), vehicle: carboxymethylcellulose (CMC)) 95 % of control; (dose: 64.0 mg/kg/injection, schedule: Q01DX015 (ip), vehicle: carboxymethylcellulose (CMC)) 102 % of control; (dose: 100.0 mg/kg/injection, schedule: Q01DX001 (ip), vehicle: carboxymethylcellulose (CMC)) 90 % of control. Besides, the T/C runs as follows: (dose: 128.0 mg/kg/injection, schedule: Q01DX015 (ip), vehicle: carboxymethylcellulose (CMC)) 100 % of control; (dose: 200.0 mg/kg/injection, schedule: Q01DX001 (ip), vehicle: carboxymethylcellulose (CMC)) 103 % of control.

With `CCOC(=O)C1(CCC(C)=O)CCCCC1=O` (stereo unspecified), the T/C is, setting by setting: under setting [1], 97 % of control; (dose: 200.0 mg/kg/injection, schedule: Q04DX002 (ip), vehicle: Klucel (hydroxypropylcellulose) (HPC)) 103 % of control; (dose: 400.0 mg/kg/injection, schedule: Q04DX002 (ip), vehicle: Klucel (hydroxypropylcellulose) (HPC)) 100 % of control.

Consider `COc1c2c(cc3c1C1(O)Cc4ccc5c(c4C[N+]1(C)CC3)OCO5)OCO2` (stereo unspecified), for which the T/C under setting [2] was 95 % of control and the T/C under setting [3] was 91 % of control.

Regarding `NC1=CC(=O)c2ccccc2C1=O`, the T/C is, setting by setting: (dose: 15.6 mg/kg/injection, schedule: Q01DX Z (ip), vehicle: other) 112 % of control; (dose: 62.5 mg/kg/injection, schedule: Q01DX Z (ip), vehicle: other) 106 % of control; (dose: 100.0 mg/kg/injection, schedule: Q04DX003 (ip), vehicle: saline with Tween-80) 103 % of control; (dose: 200.0 mg/kg/injection, schedule: Q04DX003 (ip), vehicle: saline with Tween-80) 98 % of control.

Consider `C=C(Br)CNC(=O)OCCCC`, for which the T/C runs as follows: (dose: 12.5 mg/kg/injection, schedule: Q01DX009 (ip), vehicle: saline with Tween-80) 94 % of control; (dose: 25.0 mg/kg/injection, schedule: Q01DX009 (ip), vehicle: saline with Tween-80) 100 % of control; under setting [4], 98 % of control; under setting [5], 94 % of control; under setting [6], 102 % of control.

For the compound `O=C1c2cc([N+](=O)[O-])ccc2-c2c(F)cc(F)cc21`, the T/C runs as follows: under setting [5], 104 % of control; under setting [6], 89 % of control; (dose: 400.0 mg/kg/injection, schedule: Q04DX003 (ip), vehicle: saline) 91 % of control.

Regarding `O=C(CCc1ccc(Cl)cc1)Nc1ccccc1`, the T/C is, setting by setting: (dose: 25.0 mg/kg/injection, schedule: Q04DX002 (ip), vehicle: Klucel (hydroxypropylcellulose) (HPC)) 97 % of control; (dose: 50.0 mg/kg/injection, schedule: Q04DX002 (ip), vehicle: Klucel (hydroxypropylcellulose) (HPC)) 86 % of control; under setting [1], 93 % of control.

For the compound `Cc1ccc(C)c(NC(=O)Nc2ccc(S(N)(=O)=O)cc2)c1`, the T/C under setting [7] was 91 % of control, the T/C under setting [8] was 92 % of control and the T/C under setting [9] is 96 % of control.

As to `COc1ccc(Cl)cc1NC(=O)COc1cc(Cl)c(Cl)cc1Cl`, the T/C reads like this: under setting [4], 101 % of control; (dose: 100.0 mg/kg/injection, schedule: Q01DX009 (ip), vehicle: saline with Tween-80) 96 % of control; (dose: 200.0 mg/kg/injection, schedule: Q01DX009 (ip), vehicle: saline with Tween-80) 104 % of control.

Take `O=[N+]([O-])c1ccc(/C=N/O)s1`: the T/C reads like this: (dose: 25.0 mg/kg/injection, schedule: Q04DX002 (ip), vehicle: saline with Tween-80) 95 % of control; (dose: 50.0 mg/kg/injection, schedule: Q04DX002 (ip), vehicle: saline with Tween-80) 104 % of control.

Take `COc1ccc(OC)c(NC(=O)OCC(Cl)(Cl)Cl)c1`: the T/C is 109 % of control under setting [10]; 104 % of control under setting [11]; 98 % of control (dose: 400.0 mg/kg/injection, schedule: Q01DX009 (ip), vehicle: saline).

For `Cc1cc(C)c(C(=O)CC(=O)c2cccnc2)c(C)c1`, the T/C is 102 % of control (dose: 25.0 mg/kg/injection, schedule: Q01DX001 (ip), vehicle: saline); 101 % of control and 104 % of control under setting [12]; 97 % of control under setting [13]; 102 % of control and 103 % of control under setting [2]; 97 % of control under setting [5]; 97 % of control and 98 % of control under setting [3]. The T/C under setting [6] was 98 % of control and the T/C under setting [14] is 103 % of control.

With `COC(c1ccccc1)c1ccccc1`, the T/C was 109 % of control under setting [12], 94 % of control under setting [2], 100 % of control under setting [3] and 94 % of control under setting [14].

In the case of `O=c1[nH]nc(N/N=C/c2ccccc2)n1/N=C/c1ccccc1`, the T/C by setting is: under setting [15], 100 % of control; under setting [16], 96 % of control; under setting [17], 94 % of control.

For the compound `ClC(C[n+]1ccccc1)c1ccccc1` (stereo unspecified), the T/C under setting [2] is 100 % of control.

Consider `O=NNc1ccccn1`, for which the T/C reads like this: (dose: 6.25 mg/kg/injection, schedule: Q04DX003 (ip), vehicle: saline) 111 % of control; (dose: 8.0 mg/kg/injection, schedule: Q01DX009 (ip), vehicle: saline) 116 % of control; (dose: 8.0 mg/kg/injection, schedule: Q04DX003 (ip), vehicle: saline) 121 % of control and 123 % of control; (dose: 12.0 mg/kg/injection, schedule: Q01DX009 (ip), vehicle: saline) 106 % of control; (dose: 12.0 mg/kg/injection, schedule: Q04DX003 (ip), vehicle: saline) 156 % of control; (dose: 18.0 mg/kg/injection, schedule: Q01DX009 (ip), vehicle: saline) 119 % of control. Moreover, the T/C under setting [13] was 114 % of control.

On to `N#Cc1[nH]cnc1[N+]#N`, for which the T/C is 103 % of control (dose: 3.0 mg/kg/injection, schedule: Q01DX009 (ip), vehicle: saline with Tween-80); 108 % of control (dose: 3.0 mg/kg/injection, schedule: Q04DX003 (ip), vehicle: other); 105 % of control (dose: 6.0 mg/kg/injection, schedule: Q01DX009 (ip), vehicle: saline with Tween-80); 103 % of control (dose: 6.0 mg/kg/injection, schedule: Q04DX003 (ip), vehicle: other); 91 % of control (dose: 12.0 mg/kg/injection, schedule: Q01DX009 (ip), vehicle: saline with Tween-80); 108 % of control (dose: 12.0 mg/kg/injection, schedule: Q04DX003 (ip), vehicle: other). Also, the T/C (dose: 12.5 mg/kg/injection, schedule: Q01DX001 (ip), vehicle: other) was 94 % of control.

In the case of `CC1(C)N=C(N)N=C(N)N1c1ccc(OCCCOc2ccc(S(=O)(=O)F)cc2)c(Cl)c1`, the T/C (dose: 25.0 mg/kg/injection, schedule: Q01DX009 (ip), vehicle: saline) was 100 % of control.

Turning to `O=C1OCOC1C1OCOC1=O` (stereo unspecified), the T/C is, setting by setting: (dose: 55.0 mg/kg/injection, schedule: Q01DX Z (ip), vehicle: methylcellulose (MC)) 119 % of control; (dose: 83.0 mg/kg/injection, schedule: Q01DX Z (ip), vehicle: methylcellulose (MC)) 104 % of control; (dose: 125.0 mg/kg/injection, schedule: Q01DX Z (ip), vehicle: methylcellulose (MC)) 111 % of control.

Regarding `C=CC[As](C)(=O)O`, the T/C is, setting by setting: under setting [10], 109 % of control; under setting [11], 94 % of control.

In the case of `CC(=O)C(C)(C)/C(C)=C/C(=O)O`, the T/C was 95 % of control under setting [7]; 100 % of control under setting [15]; 95 % of control under setting [8]; 100 % of control under setting [16]; 98 % of control under setting [9]; 97 % of control under setting [17].

The values are drawn from PubChem BioAssay AID248 (DTP/NCI, 2004).
